ChEMBL document CHEMBL1201862, “PubChem BioAssay data set” (2004)
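Each compound was tested at five concentrations against cells in 96-well plates for 48 hours. Abbreviation: GI50, concentration required for 50% inhibition of growth.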 The source made the active and inactive calls. Rule as the data show it: active = GI50 up to about 1.1 µM and inactive = higher.

Key:
Test in all cases: growth of human tumour cells (NCI), 48 h
A498 = tested on: A498
ACHN = tested on: ACHN
CAKI-1 = tested on: CAKI-1
COLO 205 = tested on: COLO 205
HCT-15 = tested on: HCT-15
HL-60 = tested on: HL-60
Hs-578T = tested on: Hs-578T
IGROV-1 = tested on: IGROV-1
MDA-MB-435 = tested on: MDA-MB-435
Malme-3M = tested on: Malme-3M
NCI-H226 = tested on: NCI-H226
NCI-H460 = tested on: NCI-H460
OVCAR-8 = tested on: OVCAR-8
PC-3 = tested on: PC-3
RXF 393 = tested on: RXF 393
SF-268 = tested on: SF-268
SF-539 = tested on: SF-539
SW-620 = tested on: SW-620
T47D = tested on: T47D
TK-10 = tested on: TK-10

| SMILES | GI50 (A498) | GI50 (ACHN) | GI50 (CAKI-1) | GI50 (COLO 205) | GI50 (HCT-15) | GI50 (HL-60) | GI50 (Hs-578T) | GI50 (IGROV-1) | GI50 (MDA-MB-435) | GI50 (Malme-3M) | GI50 (NCI-H226) | GI50 (NCI-H460) | GI50 (OVCAR-8) | GI50 (PC-3) | GI50 (RXF 393) | GI50 (SF-268) | GI50 (SF-539) | GI50 (SW-620) | GI50 (T47D) | GI50 (TK-10) |
| --- | --- | --- | --- | --- | --- | --- | --- | --- | --- | --- | --- | --- | --- | --- | --- | --- | --- | --- | --- | --- |
| COc1ccc2c(c1)N(C(C)=O)CN1C(=O)CCC21 (stereo not given) | > 100 µM (inactive) | > 100 µM (inactive) | > 100 µM (inactive) | > 100 µM (inactive) | > 100 µM | 48.2 µM (inactive) | > 100 µM (inactive) | > 100 µM (inactive) | > 100 µM (inactive) | > 100 µM (inactive) | > 100 µM (inactive) | > 100 µM (inactive) | > 100 µM (inactive) | > 100 µM (inactive) | > 100 µM (inactive) | > 100 µM (inactive) | > 100 µM (inactive) | > 100 µM (inactive) | > 100 µM (inactive) | > 100 µM (inactive) |
| C[C@]12CCC(=O)C=C1CC[C@@H]1[C@@H]2[C@@H](O)C[C@@]2(C)[C@H]1CC[C@]2(O)C(=O)CO [HYDROCORTISONE] | > 100 µM (inactive) | > 100 µM (inactive) | > 100 µM (inactive) | > 100 µM (inactive) | > 100 µM | > 100 µM (inactive) | > 100 µM (inactive) | > 100 µM (inactive) | > 100 µM (inactive) | > 100 µM (inactive) | > 100 µM (inactive) | > 100 µM (inactive) | > 100 µM (inactive) | > 100 µM (inactive) | > 100 µM (inactive) | > 100 µM (inactive) | > 100 µM (inactive) | > 100 µM (inactive) | > 100 µM (inactive) | > 100 µM (inactive) |
| CC(C)(C)OC(=O)NCCNC(=O)CN(CC(=O)O)C1CCCCC1N(CC(=O)O)CC(=O)O (stereo not given) | > 100 µM (inactive) | > 100 µM (inactive) | > 100 µM (inactive) | > 100 µM (inactive) | > 100 µM | > 100 µM (inactive) | > 100 µM (inactive) | > 100 µM (inactive) | > 100 µM (inactive) | > 100 µM (inactive) | > 100 µM (inactive) | > 100 µM (inactive) | > 100 µM (inactive) | > 100 µM (inactive) | > 100 µM (inactive) | > 100 µM (inactive) | > 100 µM (inactive) | > 100 µM (inactive) | > 100 µM (inactive) | > 100 µM (inactive) |
| C[C@]12CC[C@@H]3c4cc(OCC(F)(F)F)c(O)cc4CC[C@H]3[C@@H]1CC[C@@H]2O | 7.66 µM (inactive) | 7.74 µM (inactive) | 2.74 µM (inactive) | 15 µM (inactive) | 0.762 µM | 0.403 µM (active) | 2.83 µM (inactive) | 6.89 µM (inactive) | 0.284 µM (active) | 0.673 µM (active) | 7.05 µM (inactive) | 1.44 µM (inactive) | 4.83 µM (inactive) | 2.28 µM (inactive) | 1.52 µM (inactive) | 9.29 µM (inactive) | 1.38 µM (inactive) | 1.05 µM (active) | 5.41 µM (inactive) | 12 µM (inactive) |
| COC1C=COC2(C)Oc3c(C)c(O)c4c(c3C2=O)/C(=N/C2CCC(O)OC2C)C=C(NC(=O)/C(C)=C\C(=O)C2CC2C(O)C(C)C(O)C(C)C(OC(C)=O)C1C)C4=O (stereo not given) | 3.05 µM (inactive) | 3.13 µM (inactive) | 3.24 µM (inactive) | 1.33 µM (inactive) | 2.94 µM | 2.14 µM (inactive) | 2.41 µM (inactive) | 2.4 µM (inactive) | 1.79 µM (inactive) | 1.69 µM (inactive) | 2.65 µM (inactive) | 3.26 µM (inactive) | 1.69 µM (inactive) | 2.3 µM (inactive) | 1.86 µM (inactive) | 2.97 µM (inactive) | 2.33 µM (inactive) | 1.88 µM (inactive) | 2.69 µM (inactive) | 2.9 µM (inactive) |
